Data on 42 molecules can be found in patent US9856216B2, “Compounds as TNIK, IKKε and TBK1 inhibitors and pharmaceutical composition comprising same” (GREEN CROSS CORPORATION, priority 2015, dated 2018).

Structures can show the parent of a compound that is named as a salt.

T1 sequence (Q9UKE5 1-367 limits assumed): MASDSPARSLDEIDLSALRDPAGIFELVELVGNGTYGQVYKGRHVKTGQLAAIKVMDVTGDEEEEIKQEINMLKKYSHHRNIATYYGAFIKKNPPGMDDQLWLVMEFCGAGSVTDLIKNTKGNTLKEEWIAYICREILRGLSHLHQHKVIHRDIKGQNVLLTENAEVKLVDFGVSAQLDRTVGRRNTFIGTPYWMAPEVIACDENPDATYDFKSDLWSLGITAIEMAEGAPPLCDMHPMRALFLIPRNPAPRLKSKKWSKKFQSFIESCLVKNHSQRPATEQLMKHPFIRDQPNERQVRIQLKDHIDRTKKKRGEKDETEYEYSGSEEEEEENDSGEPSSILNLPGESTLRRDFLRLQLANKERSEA

The first test concerns the target T1, TNIK (Homo sapiens, UniProt Q9UKE5).
T1 construct: purchased Promega V4158
Put plainly: ADP-Glo Kinase Assay, inhibition activity on TNIK.
Conditions: not given
It is filed as biochemical. The procedure: The inhibition activities on TNIK, IKKε and TBK1 were measured by a luminometer, TNIK/IKKε/TBK1 Kinase Enzyme System (Promega, Ca# V4158; Invitrogen, PR8031B, Promega, Ca# V3991) and ADP-Glo Kinase Assay using ADP-Glo™ Kinase Analysis Kit (Promega, Ca# V9101) and a kinase reaction buffer [40 mM Tris(pH 7.5), 20 mM MgCl2, 0.1 mg/mL BSA] in accordance with the manufacturer's protocol.
(In general: ADP-Glo first removes unused ATP, then detects ADP through luciferase.)
Regarding `O=C1NCc2c(-c3ccccc3)ccc(NCCCN3C(=O)c4ccccc4C3=O)c21` [Example 264, 2-(3-((3-Oxo-7-phenylisoindolin-4-yl)amino)propyl)isoindolin-1,3-dione], the “TNIK (μM)” value is reported as “Insoluble”.

As to `O=C1NCc2c(-c3ccccc3)ccc(NCCN3C(=O)c4ccccc4C3=O)c21` [Example 257, 2-(2-((3-Oxo-7-phenylisoindolin-4-yl)amino)ethyl)isoindolin-1,3-dione], the “TNIK (μM)” value is recorded as “Insoluble”.

As for `O=C(Nc1ccc(-c2cccc(O)c2O)c2c1C(=O)NC2)c1ccc(F)cc1` [Example 189, N-(7-(2,3-dihydroxyphenyl)-3-oxoisoindolin-4-yl)-4-fluorobenzamide], the “TNIK (μM)” value was “Insoluble”.

Staying with this test, now noted: read-out: TNIK.
In the case of `O=C(Nc1ccc(-c2ccc(CN3CCOCC3)s2)c2c1C(=O)NC2)c1ccccc1` [Example 197, N-(7-(5-(morpholinomethyl)thiophen-2-yl)-3-oxoisoindolin-4-yl)benzamide], the IC50 was above 20 µM.

In the case of `O=C(Nc1ccc(Nc2ccccc2)c2c1C(=O)NC2)c1ccc(NCCCN2CCCCC2)cc1` [Example 480, N-(3-oxo-7-(phenylamino)isoindolin-4-yl)-4-((3-(piperidin-1-yl)propyl)amino)benzamide hydrochloride], the IC50 was found to be 0.22 µM.

Turning to `O=C(Nc1ccc(O)c2c1C(=O)NC2)c1ccc(F)cc1` [Example 396, 4-Fluoro-N-(7-hydroxy-3-oxoisoindolin-4-yl)benzamide], the IC50 amounted to 1.29 µM.

`O=C(Nc1ccc(-c2ccccc2)c2c1C(=O)NC2)c1ccco1` [Example 212, N-(3-oxo-7-phenylisoindolin-4-yl)furan-2-carboxamide]: the IC50 stood at 0.3 µM.

As to `O=C(Nc1ccc(Br)c2c1C(=O)NCC2)c1ccc(NCCN2CCCC2)cc1` [Example 403, N-(5-bromo-1-oxo-1,2,3,4-tetrahydroisoquinolin-8-yl)-4-((2-(pyrrolidin-1-yl)ethyl)amino)benzamide], the IC50 is 9.82 µM.

On to `CN(C)CCNc1ccc(C(=O)Nc2ccc(-c3ccccc3)c3c2C(=O)NC3)cc1` [Example 362, 4-((2-(Dimethylamino)ethyl)amino)-N-(3-oxo-7-phenylisoindolin-4-yl)benzamide], for which the IC50 was found to be 0.49 µM.

With `Nc1ccc(-c2ccc(Cl)cc2)c2c1C(=O)NC2` [Example 62, 7-Amino-4-(4-chlorophenyl)isoindolin-1-one], the IC50 is above 20 µM.

Turning to `COc1ccccc1-c1ccc(NC(=O)c2ccc(NCCCO)cc2)c2c1CNC2=O` [Example 354], the IC50 was found to be 0.22 µM.

Take `COc1ccc(C(=O)Nc2ccc(-c3ccc(F)cc3)c3c2C(=O)NC3)cc1` [Example 123, N-(7-(4-fluorophenyl)-3-oxoisoindolin-4-yl)-4-methoxy benzamide]: the IC50 is 7 µM.

As for `COc1ccccc1-c1ccc(NC(=O)c2ccc(NCCN3CCCC3)cc2)c2c1CNC2=O` [Example 303, N-(7-(2-methoxyphenyl)-3-oxoisoindolin-4-yl)-4-((2-(pyrrolidin-1-yl)ethyl)amino)benzamide hydrochloride], the IC50 was 0.3 µM.

As to `O=C(Nc1ccc(-c2ccccc2)c2c1C(=O)NC2)c1ccc(NCc2cccs2)cc1` [Example 333, N-(3-oxo-7-phenylisoindolin-4-yl)-4-((thiophen-2-ylmethyl)amino)benzamide], the IC50 turned out to be 1.6 µM.

Turning to `CC(=O)Nc1ccc(C(=O)Nc2ccc(Nc3ccccc3)c3c2C(=O)NC3)cc1` [Example 435, 4-Acetamido-N-(3-oxo-7-(phenylamino)isoindolin-4-yl) benzamide], the IC50 worked out at 0.21 µM.

Consider `O=C(Nc1ccc(Nc2ccccc2)c2c1C(=O)NC2)c1ccc(NC[C@H](O)CN2CCCCC2)cc1` [Example 489, (S)-4-((2-hydroxy-3-(piperidin-1-yl)propyl)amino)-N-(3-oxo-7-(phenylamino)isoindolin-4-yl)benzamide], for which the IC50 was determined as 0.087 µM.

In the case of `Nc1ccc(-c2cccs2)c2c1C(=O)NC2=O` [Example 275, 4-Amino-7-(thiophen-2-yl)isoindolin-1,3-dione], the IC50 amounted to 1.1 µM.

As for `O=C(Nc1ccc(Br)c2c1C(=O)NC2)c1ccc(NCCN2CCCCCC2)cc1` [Example 285, 4-((2-(azepan-1-yl)ethyl)amino)-N-(7-bromo-3-oxoisoindolin-4-yl)benzamide], the IC50 is 1.13 µM.

Regarding `CNCCNc1ccc(-c2ccccc2)c2c1C(=O)NC2` [Example 261, 7-((2-(Methylamino)ethyl)amino)-4-phenylisoindolin-1-one], the IC50 is above 20 µM.

Consider `O=C(Nc1ccc(-c2cc(F)cc(F)c2)c2c1C(=O)NC2)c1ccccc1` [Example 30, N-(7-(3,5-difluorophenyl)-3-oxoisoindolin-4-yl)benzamide], for which the IC50 was above 20 µM.

`COc1ccccc1-c1ccc(NC(=O)c2ccc(NCCCN3CCCC3)cc2)c2c1CNC2=O` [Example 302, N-(7-(2-methoxyphenyl)-3-oxoisoindolin-4-yl)-4-((3-(pyrrolidin-1-yl)propyl)amino)benzamide]: the IC50 worked out at 0.16 µM.

Consider `COCCCNc1ccc(C(=O)Nc2ccc(-c3ccccc3)c3c2C(=O)NC3)cc1` [Example 331, 4-((3-Methoxypropyl)amino)-N-(3-oxo-7-phenylisoindolin-4-yl) benzamide], for which the IC50 is 0.79 µM.

In the case of `CN(C)CCNc1ccc(C(=O)Nc2ccc(-c3cccc4ncoc34)c3c2C(=O)NC3)cc1` [Example 341, N-(7-(benzo[d]oxazol-7-yl)-3-oxoisoindolin-4-yl)-4-((2-(dimethylamino)ethyl)amino)benzamide], the IC50 turned out to be 0.038 µM.

With `O=C(Nc1ccc(-c2cccc3ncoc23)c2c1C(=O)NC2)c1ccc(F)cc1` [Example 193, N-(7-(benzo[d]oxazol-7-yl)-3-oxoisoindolin-4-yl)-4-fluorobenzamide], the IC50 came out at 1.45 µM.

On to `COc1cc(OC)cc(-c2ccc(NC(=O)c3ccccc3)c3c2CNC3=O)c1` [Example 172, N-(7-(3,5-dimethoxyphenyl)-3-oxoisoindolin-4-yl)benzamide], for which the IC50 was above 20 µM.

Consider `COc1ccc(Nc2ccc(NC(=O)c3ccccc3)c3c2CNC3=O)cc1` [Example 416, N-(7-((4-methoxyphenyl)amino)-3-oxoisoindolin-4-yl) benzamide], for which the IC50 was 3.7 µM.

For `O=C(Nc1ccc(-c2ccc(C(F)(F)F)cc2)c2c1C(=O)NC2)c1ccccc1` [Example 210, N-(3-oxo-7-(4-(trifluoromethyl)phenyl)isoindolin-4-yl) benzamide], the IC50 was above 20 µM.

On to `Cc1cccc(Nc2ccc(NC(=O)c3ccc(NCCN4CCCC4)cc3)c3c2CNC3=O)c1` [Example 449, N-(3-oxo-7-(m-tolylamino)isoindolin-4-yl)-4-((2-(pyrrolidin-1-yl)ethyl)amino)benzamide], for which the IC50 came out at 0.59 µM.

For `CCc1cccc(-c2ccc(NC(=O)c3ccccc3)c3c2CNC3=O)c1` [Example 42, N-(7-(3-ethylphenyl)-3-oxoisoindolin-4-yl)benzamide], the IC50 was determined as 3.7 µM.

For `Cc1ccc(NC(=O)Nc2ccc(-c3ccccc3)c3c2C(=O)NC3)cc1` [Example 232, 1-(3-Oxo-7-phenylisoindolin-4-yl)-3-(p-tolyl)urea], the IC50 came out at 2.1 µM.

As to `O=C(Nc1ccc(-c2ccccc2)c2c1C(=O)NCC2)c1ccccc1` [Example 398, N-(1-oxo-5-phenyl-1,2,3,4-tetrahydroisoquinolin-8-yl) benzamide], the IC50 came out at 3.3 µM.

For the molecule `O=C(Nc1ccc(Nc2ccccc2)c2c1C(=O)NC2)c1ccc(NCC(O)CN2CCCCC2)cc1` (stereo not drawn) [Example 488, 4-((2-Hydroxy-3-(piperidin-1-yl)propyl)amino)-N-(3-oxo-7-(phenylamino)isoindolin-4-yl)benzamide], the IC50 is 0.093 µM.

`O=C(Nc1ccc(C2CC2)c2c1C(=O)NC2)c1ccccc1` [Example 173, N-(7-cyclopropyl-3-oxoisoindolin-4-yl)benzamide]: the IC50 was 0.75 µM.

Consider `COc1cccc(Nc2ccc(NC(=O)c3ccccc3)c3c2CNC3=O)c1` [Example 431, N-(7-((3-methoxyphenyl)amino)-3-oxoisoindolin-4-yl) benzamide], for which the IC50 came to 0.94 µM.

As to `CCCCOc1ccc(-c2ccc(NC(=O)c3ccccc3)c3c2CNC3=O)cc1` [Example 184, N-(7-(4-butoxyphenyl)-3-oxoisoindolin-4-yl)benzamide], the IC50 was above 20 µM.

Regarding `O=C(Nc1ccc(-c2cccc(Cl)c2Cl)c2c1C(=O)NC2)c1ccccc1` [Example 17, N-(7-(2,3-dichlorophenyl)-3-oxoisoindolin-4-yl)benzamide], the IC50 was 1 µM.

As to `CC(=O)Nc1ccc(C(=O)Nc2ccc(-c3ccccc3)c3c2C(=O)NCC3)cc1` [Example 397, 4-Acetamido-N-(1-oxo-5-phenyl-1,2,3,4-tetrahydroisoquinolin-8-yl)benzamide], the IC50 was determined as 5.4 µM.

Take `CNC(=O)c1ccc(NC(=O)c2ccc(F)cc2)c2c1CNC2=O` [Example 389, 7-(4-Fluorobenzamido)-N-methyl-1-oxoisoindoline-4-carboxamide]: the IC50 is above 20 µM.

As for `NC1CCN(c2ccc(C(=O)Nc3ccc(Nc4ccccc4)c4c3C(=O)NC4)cc2)CC1` [Example 491, 4-(4-Aminopiperidin-1-yl)-N-(3-oxo-7-(phenylamino)isoindolin-4-yl)benzamide], the IC50 came out at 0.11 µM.

As to `CCCCOc1cccc(-c2ccc(NC(=O)c3ccccc3)c3c2CNC3=O)c1` [Example 46, N-(7-(3-butoxyphenyl)-3-oxoisoindolin-4-yl)benzamide], the IC50 was above 20 µM.

Take `CC(=O)Nc1ccc(C(=O)Nc2ccc(-c3ccco3)c3c2C(=O)NC3)cc1` [Example 140, 4-Acetamido-N-(7-(furan-2-yl)-3-oxoisoindolin-4-yl) benzamide]: the IC50 was 0.3 µM.

`O=C(Nc1ccc(-c2ccccc2)c2c1C(=O)NC2)c1ccc(NCCN2CCCCC2)cc1` [Example 360, N-(3-oxo-7-phenylisoindolin-4-yl)-4-((2-(piperidin-1-yl)ethyl)amino)benzamide]: the IC50 is 0.32 µM.
